Measured values taken from US9051271B2, “Substituted pyridine derivatives useful in the treatment of cancer” (United Arab Emirates University, priority 2012, dated 2015).
Like-named read-outs stand apart in the source and are kept apart here.

What was measured:
MDA-MB-231 cells = test: Cell Titer-Glo Luminescent Cell Viability assay, breast cancer cells; assay type: cell-based, Human; conditions: half-maximal inhibition at 24 h
Procedure: (§1) Human breast cancer cells MDA-MB-231 and colorectal cancer cells HT29, were maintained in DMEM medium (Invitrogen, Cergy Pontoise, France). Human lung cancer cells NCI-H460-Luc2 (Caliper Life Sciences, US) (NSCLC) were maintained in RPMI 1640 (Hyclone Thermo Scientific, MA United States). All media were supplemented with antibiotics (penicillin 50.00 U/ml; streptomycin […]) (Invitrogen, Cergy Pontoise, France) and 10.00% fetal bovine serum (FBS, Biowest, Nouaille, France).
Cells were seeded in 96-well plates at a density of 5,000 cells/well. […] Control culture cells were treated with 0.10% DMSO.
(§2) The effect of the test compounds on cell viability was determined using a Cell Titer-Glo Luminescent Cell Viability assay (Promega Corporation, Madison, USA), based on quantification of ATP, which signals the presence of metabolically active cells. Luminescent signal was measured using GLOMAX Luminometer system. The data were presented as proportional viability (%) by comparing the treated group with the untreated cells, the viability of which is assumed to be 100%.
(§3) Inhibition rates ranged between 50.00 and 98.00% were recorded for all compounds at 100.00 μM concentration. The IC50 is the concentration at which half-maximal inhibition occurs at 24 h. Approximate IC50 value of 100.00 μM was obtained after 24.00 hours.
(§4) Exponentially growing MDA-MB-231, NCI-H460-Luc2 and HT29 cells were treated with vehicle (0.10% DMSO) and the indicated concentrations of investigated compounds. Viable cells were assayed as described in Materials and Methods. Exposure times of 24.00 and 48.00 hours were applied. All experiments were repeated at least three times.

HT29 cells = test: Cell Titer-Glo Luminescent Cell Viability assay, colorectal cancer cells; assay type: cell-based, Human; conditions: death of 50% of the cells, half-maximal inhibition at 24 h, read-out: IC50 HT29 Colon Cancer
Procedure: as §1
(§5) Cells were seeded in 96-well plates at a density of 5,000 cells/well. After 24.00 hours of seeding, resultant cells' arrays were treated for 24.00-48.00 hours with increasing concentrations of the test compounds (5.00-100.00 μM), in triplicates. Control culture cells were treated with 0.10% DMSO.
as §2
as §3, with “The effects of investigated compounds at concentrations 5.00-100.00 μM on MDA-MB-231, NCI-H460-Luc2 and HT29 cells were investigated after 24.00 and 48.00 hours exposures. […] Inhibition” for “Inhibition”
as §4

NCI-H460-Luc2 cells = test: Cell Titer-Glo Luminescent Cell Viability assay, lung cancer cells; assay type: cell-based, Human; conditions: death of 50% of the cells, half-maximal inhibition at 24 h
Procedure: as §1, §5, §2
as §3, with “The effects of investigated compounds at concentrations 5.00-100.00 μM on MDA-MB-231, NCI-H460-Luc2 and HT29 cells were investigated after 24.00 and 48.00 hours exposures. […] Inhibition” for “Inhibition”
as §4

## Cc1c(N=Nc2ccccc2F)c(-c2ccccc2)[nH]c(=O)c1C#N [Id, 3-Cyano-4-methyl-6-phenyl-5-(2′-fluorophenylazo)-pyridine-2(1H)-one]
other
  melting point: 225 °C

## Cc1c(N=Nc2cccc(C(F)(F)F)c2)c(-c2ccccc2)[nH]c(=O)c1C#N [Ie, 3-Cyano-4-methyl-6-phenyl-5-(3′-trifluoromethylphenylazo)-pyridine-2(1H)-one]
MDA-MB-231 cells; Homo sapiens, MDA-MB-231
  IC50: 90.5 µM
HT29 cells; Homo sapiens, HT-29
  IC50: 64.5 µM
NCI-H460-Luc2 cells; Homo sapiens
  IC50: 35.9 µM
other
  melting point: 237 °C

## Cc1[nH]c(=O)c(C#N)c(C)c1N=Nc1cccc(C(F)(F)F)c1 [Ib, 3-Cyano-4,6-dimethyl-5-(3′-trifluoromethylphenylazo)-pyridine-2(1H)-one]
MDA-MB-231 cells; Homo sapiens, MDA-MB-231
  IC50: 270 µM
other
  melting point: 265 °C

## Cc1[nH]c(=O)c(C#N)c(C)c1N=Nc1ccc([N+](=O)[O-])cc1 [Compound Ig, 3-Cyano-4,6-dimethyl-5-(4′-nitrorthenylazo)-pyridine-2(1H)-one]
MDA-MB-231 cells
  IC50: 72.4 µM
HT29 cells
  IC50: 39 µM
NCI-H460-Luc2 cells
  IC50: 29.8 µM

## Cc1[nH]c(=O)c(C#N)c(C)c1N=Nc1ccccc1F [Ia, 3-Cyano-4,6-dimethyl-5-(2′-fluorophenylazo)-pyridine-2(1H)-one]
MDA-MB-231 cells; Homo sapiens, MDA-MB-231
  IC50: 483 µM
other
  melting point: 257 °C

## Cc1c(N=Nc2ccc([N+](=O)[O-])cc2)c(-c2ccccc2)[nH]c(=O)c1C#N [Ih, 3-Cyano-4-methyl-6-phenyl-5-(4′-nitronthenylazo)-pyridine-2(1H)-one]
MDA-MB-231 cells
  IC50: 172 µM
HT29 cells
  IC50: 29.9 µM
NCI-H460-Luc2 cells
  IC50: 30.7 µM

## Cc1c(N=Nc2ccc(F)cc2)c(-c2ccccc2)[nH]c(=O)c1C#N [If, 3-Cyano-4-methyl-6-phenyl-5-(4′-fluorophenylazo)-pyridine-2(1H)-one]
MDA-MB-231 cells; Homo sapiens, MDA-MB-231
  IC50: 75.4 µM
HT29 cells; Homo sapiens, HT-29
  IC50: 93.9 µM
NCI-H460-Luc2 cells; Homo sapiens
  IC50: 30 µM
other
  melting point: 252 °C

## Cc1[nH]c(=O)c(C#N)c(C)c1N=Nc1ccc(F)cc1 [Ic, 3-Cyano-4,6-dimethyl-5-(4′-fluorophenylazo)-pyridine-2(1H)-one]
MDA-MB-231 cells; Homo sapiens, MDA-MB-231
  IC50: 216 µM
other
  melting point: 272 °C
